Reference: US20260327191A1, “GSK3a INHIBITORS AND METHODS OF USE THEREOF” (Blueprint Medicines Corporation, priority 2023, published 2026)
Structures can show the parent of a compound that is named as a salt. Where two headings read alike, the source gives them in different places.

Assays:
GSK3α or GSK3B = test: Measured Km for ATP in the GSK3 in vitro enzymatic activity assay; format: biochemical, human; settings: role: substrate; 100 mM HEPES pH 7.5, 10 mM MgCl2; 1.0 μM peptide substrate (5-FAM-KRREILSRRPpSYR-COOH); 25° C.
Experimental: Full length human GSK3α or GSK3B expressed as N-terminal GST fusion proteins in baculovirus host were purchased from Carna Biosciences (Japan). The kinase was pre-incubated with ATP (adenosine-5′-triphosphate) for 45 min, then incubated with tested compounds for another 45 min in assay buffer that contains 100 mM HEPES (N-2-hydroxyethylpiperazine-N′-2-ethanesulfonic acid), pH 7.5, 10 mM MgCl2, 1.0 mM DTT, and 0.015% Briji-35. […] Percent inhibition was plotted against compound concentration to generate 10-point dose response curve with 3-fold serial dilution starting from 10 μM. IC50 value was determined from the 4-parameter logistic curve fitting.

human GSK3α = biological target: T1, human GSK3α (Homo sapiens, UniProt P49840); test: In vitro enzymatic activity assay, GSK3α; format: biochemical; settings: 1.0 mM ATP, 1.0 μM peptide substrate, 120 min, 25° C
T1 construct: Full length human GSK3α or GSK3B expressed as N-terminal GST fusion proteins; GST (N); purchased Carna Biosciences (Japan); host or cells: baculovirus host
T1 sequence (P49840 whole entry, the tested form may be a part): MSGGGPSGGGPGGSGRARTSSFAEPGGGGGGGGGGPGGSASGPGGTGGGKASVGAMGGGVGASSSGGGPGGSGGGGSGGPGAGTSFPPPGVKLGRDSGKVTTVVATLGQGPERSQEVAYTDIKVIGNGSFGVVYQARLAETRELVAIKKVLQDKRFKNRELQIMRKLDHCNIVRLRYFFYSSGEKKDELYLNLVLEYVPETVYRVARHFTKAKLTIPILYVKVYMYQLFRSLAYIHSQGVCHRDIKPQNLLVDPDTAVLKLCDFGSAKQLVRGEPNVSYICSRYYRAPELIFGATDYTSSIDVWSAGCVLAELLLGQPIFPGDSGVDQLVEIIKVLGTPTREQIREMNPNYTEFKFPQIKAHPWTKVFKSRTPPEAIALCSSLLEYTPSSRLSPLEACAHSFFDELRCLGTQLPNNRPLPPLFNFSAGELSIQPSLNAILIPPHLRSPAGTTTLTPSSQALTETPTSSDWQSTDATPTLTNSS

GSK3A = biological target: T2, GSK3A (Homo sapiens, UniProt P49840); test: NanoBRET cellular target engagement assay, Nanoluc-GSK3A in HEK293 cells; format: cell-based; settings: NanoBRET GSK3α IC50, HEK293 cells, tracer K-8, 2 hours, 37° C
T2 construct: expressed in transfected cells
T2 sequence (P49840 whole entry): as the sequence (P49840 whole entry, the tested form may be a part) above

GSK3B [1] = biological target: T3, GSK3B (Homo sapiens, UniProt P49841); test: NanoBRET cellular target engagement assay, Nanoluc-GSK3B in HEK293 cells; format: cell-based; parameters: expressed in transfected cells; settings: NanoBRET GSK3β IC50, HEK293 cells, tracer K-8, 2 hours, 37° C
T3 sequence (P49841 whole entry, the tested form may be a part): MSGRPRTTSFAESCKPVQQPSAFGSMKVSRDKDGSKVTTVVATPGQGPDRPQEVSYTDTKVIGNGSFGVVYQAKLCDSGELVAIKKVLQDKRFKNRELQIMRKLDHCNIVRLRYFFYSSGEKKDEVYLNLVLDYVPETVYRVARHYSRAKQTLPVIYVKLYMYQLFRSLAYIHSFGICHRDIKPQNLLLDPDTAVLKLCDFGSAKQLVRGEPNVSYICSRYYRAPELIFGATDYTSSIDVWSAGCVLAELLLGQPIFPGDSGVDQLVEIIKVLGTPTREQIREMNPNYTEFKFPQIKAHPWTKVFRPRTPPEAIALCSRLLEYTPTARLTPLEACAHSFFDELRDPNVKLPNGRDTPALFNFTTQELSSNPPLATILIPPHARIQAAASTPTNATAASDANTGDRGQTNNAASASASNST

GSK3B [2] = biological target: T3, GSK3B; test: In vitro enzymatic activity assay, GSK3β; format: biochemical; parameters: Full length human GSK3α or GSK3B expressed as N-terminal GST fusion proteins; GST (N); purchased Carna Biosciences (Japan); host or cells: baculovirus host; settings: 1.0 mM ATP, 1.0 μM peptide substrate, 120 min, 25° C
GSK3α knockout mice = settings: blockade of autophagy and mTOR pathway activation; cited from earlier work

Structure (SMILES): Nc1ncnc2c1ncn2[C@@H]1O[C@H](COP(=O)(O)OP(=O)(O)OP(=O)(O)O)[C@@H](O)[C@H]1O [ATP, adenosine-5′-triphosphate]
- Km (GSK3α or GSK3B): 10 to 15 µM

Structure (SMILES): CCNCc1cncc(NC(=O)c2c(N)ncn(-c3c(Cl)cc(-c4cnco4)cc3Cl)c2=O)c1 [Example 200, 4-amino-1-(2,6-dichloro-4-(oxazol-5-yl)phenyl)-N-(5-((ethylamino)methyl)pyridin-3-yl)-6-oxo-1,6-dihydropyrimidine-5-carboxamide]
- IC50 (human GSK3α; read-out: Enzyme GSK3α (IC50)): 14.4 nM
- IC50 (GSK3A): 7.6 nM
- IC50 (GSK3B [1]): 451 nM
- IC50 (GSK3B [2]; read-out: Enzyme GSK3β (IC50)): 813 nM

Structure (SMILES): CCNCc1cncc(NC(=O)c2c(N)ncn(-c3c(Cl)cc(-c4ncco4)cc3Cl)c2=O)c1 [Example 201, 4-amino-1-(2,6-dichloro-4-(oxazol-2-yl)phenyl)-N-(5-((ethylamino)methyl)pyridin-3-yl)-6-oxo-1,6-dihydropyrimidine-5-carboxamide]
- IC50 (human GSK3α; read-out: Enzyme GSK3α (IC50)): 13.7 nM
- IC50 (GSK3A): 7.4 nM
- IC50 (GSK3B [1]): 430 nM
- IC50 (GSK3B [2]; read-out: Enzyme GSK3β (IC50)): 608 nM

Structure (SMILES): CCNCc1cncc(NC(=O)c2c(N)ncn(-c3c(Cl)cc(CC(F)(F)F)cc3Cl)c2=O)c1 [Example 202, 4-amino-1-(2,6-dichloro-4-(2,2,2-trifluoroethyl)phenyl)-N-(5-((ethylamino)methyl)pyridin-3-yl)-6-oxo-1,6-dihydropyrimidine-5-carboxamide]
- IC50 (human GSK3α; read-out: Enzyme GSK3α (IC50)): 8.7 nM
- IC50 (GSK3A): 5.9 nM
- IC50 (GSK3B [1]): 385 nM
- IC50 (GSK3B [2]; read-out: Enzyme GSK3β (IC50)): 432 nM

Structure (SMILES): CCNCc1cncc(NC(=O)c2c(N)ncn(-c3c(Cl)cc(CC(F)F)cc3Cl)c2=O)c1 [Example 203, 4-amino-1-(2,6-dichloro-4-(2,2-difluoroethyl)phenyl)-N-(5-((ethylamino)methyl)pyridin-3-yl)-6-oxo-1,6-dihydropyrimidine-5-carboxamide]
- IC50 (human GSK3α; read-out: Enzyme GSK3α (IC50)): 8 nM
- IC50 (GSK3A): 3.7 nM
- IC50 (GSK3B [1]): 293 nM
- IC50 (GSK3B [2]; read-out: Enzyme GSK3β (IC50)): 318 nM

Structure (SMILES): COc1cc(C)c(-n2cnc(N)c(C(=O)Nc3cncc([C@H]4CCCCN4)c3)c2=O)c(C)c1 [Example 205, (R)-4-amino-1-(4-methoxy-2,6-dimethylphenyl)-6-oxo-N-(5-(piperidin-2-yl)pyridin-3-yl)-1,6-dihydropyrimidine-5-carboxamide]
- IC50 (human GSK3α; read-out: Enzyme GSK3α (IC50)): 5 nM
- IC50 (GSK3A): 3.7 nM
- IC50 (GSK3B [1]): 204 nM
- IC50 (GSK3B [2]; read-out: Enzyme GSK3β (IC50)): 238 nM

Structure (SMILES): Cc1cc(CC(=O)O)cc(C)c1-n1cnc(N)c(C(=O)Nc2cncc([C@H]3CCCCN3)c2)c1=O [Example 207, (R)-2-(4-(4-amino-6-oxo-5-((5-(piperidin-2-yl)pyridin-3-yl)carbamoyl)pyrimidin-1 (6H)-yl)-3,5-dimethylphenyl) acetic acid]
- IC50 (human GSK3α; Enzyme GSK3α (IC50)): 5.3 nM
- IC50 (GSK3A): 966 nM
- IC50 (GSK3B [1]): 25000 nM
- IC50 (GSK3B [2]; Enzyme GSK3β (IC50)): 234 nM

Structure (SMILES): Nc1ncn(-c2c(Cl)cc(N3CCC3)cc2Cl)c(=O)c1C(=O)Nc1cncc([C@@H]2CCCCN2)c1 [Example 209, (S)-4-amino-1-(4-(azetidin-1-yl)-2,6-dichlorophenyl)-6-oxo-N-(5-(piperidin-2-yl)pyridin-3-yl)-1,6-dihydropyrimidine-5-carboxamide]
- IC50 (human GSK3α; read-out: Enzyme GSK3α (IC50)): 5.2 nM
- IC50 (GSK3A): 5.9 nM
- IC50 (GSK3B [1]): 300 nM
- IC50 (GSK3B [2]; read-out: Enzyme GSK3β (IC50)): 383 nM

Structure (SMILES): Cc1cc(C(F)(F)F)cc(C)c1-n1cnc(N)c(C(=O)Nc2cncc([C@H]3CCCCN3)c2)c1=O [Example 216, (R)-4-amino-1-(2,6-dimethyl-4-(trifluoromethyl)phenyl)-6-oxo-N-(5-(piperidin-2-yl)pyridin-3-yl)-1,6-dihydropyrimidine-5-carboxamide]
- IC50 (human GSK3α; read-out: Enzyme GSK3α (IC50)): 5.6 nM
- IC50 (GSK3A): 3.4 nM
- IC50 (GSK3B [1]): 173 nM
- IC50 (GSK3B [2]; read-out: Enzyme GSK3β (IC50)): 293 nM

Structure (SMILES): CCOc1c(CN)cccc1NC(=O)c1c(N)ncn(-c2c(Cl)cccc2Cl)c1=O [Example 220, 4-amino-N-(3-(aminomethyl)-2-ethoxyphenyl)-1-(2,6-dichlorophenyl)-6-oxo-1,6-dihydropyrimidine-5-carboxamide]
- IC50 (human GSK3α; read-out: Enzyme GSK3α (IC50)): 11.7 nM
- IC50 (GSK3A): 8.1 nM
- IC50 (GSK3B [1]): 259 nM
- IC50 (GSK3B [2]; read-out: Enzyme GSK3β (IC50)): 308 nM

Structure (SMILES): COc1c(CN)cccc1NC(=O)c1c(N)ncn(-c2c(Cl)cccc2Cl)c1=O [Example 221, 4-amino-N-(3-(aminomethyl)-2-methoxyphenyl)-1-(2,6-dichlorophenyl)-6-oxo-1,6-dihydropyrimidine-5-carboxamide trifluoroacetate]
- IC50 (human GSK3α; read-out: Enzyme GSK3α (IC50)): 15.6 nM
- IC50 (GSK3A): 7.3 nM
- IC50 (GSK3B [1]): 235 nM
- IC50 (GSK3B [2]; read-out: Enzyme GSK3β (IC50)): 400 nM

Structure (SMILES): CO[C@H]1C[C@@H]2CC[C@@H](C)[C@@](O)(O2)C(=O)C(=O)N2CCCC[C@H]2C(=O)O[C@H]([C@H](C)C[C@@H]2CC[C@@H](OCCO)[C@H](OC)C2)CC(=O)[C@H](C)/C=C(\C)[C@@H](O)[C@@H](OC)C(=O)[C@H](C)C[C@H](C)/C=C/C=C/C=C/1C [everolimus]
- reversal of mild aging phenotypes of GSK3α knockout mice (GSK3α knockout mice): could be reversed
